Values of other authors as cited in patent publication US20050186280A1, “Method for stabilizing a composition having a biologically active epidermal growth factor as an active ingredient” (Daewoong Pharm. Co., Ltd., priority 2000, published 2005).

Settings: background statement; applied to wounds

In the case of epidermal growth factor [EGF], the “half-life of EGF” value is given as “about 1 hour”.
